The molecules below were run against T1, Decaprenyl diphosphate synthase (Mycobacterium tuberculosis (strain CDC 1551 / Oshkosh), UniProt P9WFF6) (assay: DPPS Inhibition (cis FPP based) Assay). Details: pH 7.5.
T1 sequence (P9WFF6 whole entry): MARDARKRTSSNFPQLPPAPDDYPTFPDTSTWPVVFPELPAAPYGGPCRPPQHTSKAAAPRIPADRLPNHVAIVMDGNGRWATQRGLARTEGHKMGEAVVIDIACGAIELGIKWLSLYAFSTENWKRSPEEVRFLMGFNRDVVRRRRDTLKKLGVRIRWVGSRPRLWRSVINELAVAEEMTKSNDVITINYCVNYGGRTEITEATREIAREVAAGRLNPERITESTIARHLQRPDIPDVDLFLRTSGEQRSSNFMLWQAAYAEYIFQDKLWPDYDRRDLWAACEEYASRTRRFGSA
Source text: We screened an in-house library of 19 compounds using cis-FPP as substrate.

SMILES	IC50 [µM]
CCCCCCCCOc1cc(O)cc(COc2ccc(Br)cc2C(=O)O)c1 [BPH-1311]	56
CCCCCCCCOc1cccc(C(=O)Nc2ccc([N+](=O)[O-])cc2C(=O)O)c1 [BPH-1247]	49
CCCCCCCCOc1cccc(CO/C=C/C=C(\C=C\C(=O)O)S(=O)(=O)N(C)C)c1 [BPH-1152]	83
O=C(O)/C(O)=C/C(=O)c1ccc(N2CCN(C(=O)c3cccc(-c4ccccc4)c3)CC2)cc1 [BPH-1381]	15
Cc1ccc(S(=O)(=O)N2CCN(c3ccc(C(=O)/C=C(\O)C(=O)O)cc3)CC2)cc1 [BPH-1380]	20
CCCCCCCCCCOc1cccc(COc2ccccc2P(=O)(O)O)c1 [BPH-1159]	55
CCCCCCCCOc1cccc(C(=O)Nc2ccc(S(N)(=O)=O)cc2C(=O)O)c1 [BPH-1255]	65
CCCCCCCCOc1ccc(C(=O)CSCC(=O)O)cc1 [BPH-1391]	82
CCCCCCCCCCCCCCCn1cc[n+](CC(O)(P(=O)(O)O)P(=O)(O)O)c1 [BPH-1325]	36
CCCCCCCCCCOc1cccc(CSc2ccccc2C(=O)O)c1 [BPH-1102]	19

These molecules were tested against T1, Decaprenyl diphosphate synthase (assay: DPPS Inhibition (GPP based) Assay). Details: pH 7.5.
Source text: We screened an in-house library of 43 compounds using GPP as substrate.

SMILES	IC50 [µM]
O=C(Nc1ccc(CCC2=NCCN2)cc1)c1ccc(C(=O)Nc2ccc(CCC3=NCCN3)cc2)cc1 [BPH-1413]	5.8
O=P(O)(O)C(O)(Cc1cccc(-c2cccc(NS(=O)(=O)c3cccc(S(=O)(=O)Nc4cccc(-c5cccc(CC(O)(P(=O)(O)O)P(=O)(O)O)c5)c4)c3)c2)c1)P(=O)(O)O [BPH-789]	0.36
CCCCCCCCOc1cc(O)cc(COc2ccc(Br)cc2C(=O)O)c1 [BPH-1311]	2.9
CCCCCCC1=C(C[N+](C)(C)C)C(=O)c2ccccc2C1=O [BPH-1474]	7
CC(C)=CCC/C(C)=C/COc1ccc(C(=O)/C=C(\O)C(=O)O)cc1 [BPH-1379]	4.1
CCCCCCCCOc1cccc(C(=O)Nc2ccc([N+](=O)[O-])cc2C(=O)O)c1 [BPH-1247]	0.119
NC(=O)c1cc(NC(=O)c2ccc(C(=O)Nc3cc(C(N)=O)cc(C4=NCCN4)c3)cc2)cc(C2=NCCN2)c1 [100873, 18]	8.4
NCCc1cccc(C#Cc2ccc(C#Cc3cccc(CCN)c3)cc2)c1 [BPH-1427]	3.2
CCCCCCCCCCCCCCSc1ccccc1C(=O)O [BPH-948]	0.036
CCCCCCCCOc1ccc(C(=O)/C=C(\O)C(=O)O)cc1 [BPH-1330]	20
CCCCCCCCOc1cccc(C(=O)N(C)c2cccc(P(=O)(O)O)c2)c1 [BPH-1433]	0.49
C/C=C\C(=C/CC(=O)Nc1ccc(OC(F)(F)F)cc1C(=O)O)OCCCCCCCC [BPH-1477]	0.043
CCCCCCCCOc1cccc(C(=O)Nc2cc(S(C)(=O)=O)ccc2C(=O)O)c1 [BPH-1467]	0.138
CCCCCCCCCCOc1cccc(COc2ccccc2C(=O)O)c1 [BPH-1150]	0.7
CCCCCCCCCCCCOc1cccc(O)c1C(=O)O [BPH-1065]	4.5
CCCCCCCCCCOc1cccc(C(=O)Nc2ccc(S(N)(=O)=O)cc2C(=O)O)c1 [BPH-1256]	0.041
CCCCCCOc1ccc(C(=O)/C=C(\O)C(=O)O)cc1 [BPH-1378]	10
CCCCCCCCCCOc1cccc(COc2ccc(S(=O)(=O)N3CCN(C(C)=O)CC3)cc2C(=O)O)c1 [BPH-1165]	3
CCCCCCCCOc1cccc(C(=O)Nc2ccc(Cl)cc2C(=O)O)c1 [BPH-1466]	0.156
CCCCCCCOc1cccc(C(=O)Nc2ccccc2C(=O)O)c1 [BPH-1167]	0.133
CCn1c2ccccc2c2cc(NC(=O)/C=C(\O)C(=O)O)ccc21 [BPH-1149]	2
CCCCCCCCCCCCCCOc1cc([N+](=O)[O-])ccc1C(=O)O [BPH-965]	1
CCCCCCCCOc1cccc(P(=O)(CC(=O)C(=O)O)OCC)c1 (stereo not given) [BPH-1389]	2.6
O=C(/C=C/c1ccc(O)c(O)c1)OC1CC(O)(C(=O)O)CC(O)C1O (stereo not given) [BPH-1068]	2.3
CCCCCCCCOc1cccc(CNC(=O)/C=C(\O)C(=O)O)c1 [BPH-1305]	6.3
CCCCCCCCOc1cccc(C(=O)Nc2cccc(P(=O)(O)O)c2)c1 [BPH-1432]	0.21
CCCCCCCCCCOc1cc(C(=O)Nc2ccc(S(N)(=O)=O)cc2C(=O)O)cc(C(=O)OC)c1 [BPH-1257]	1.1
CCCCCCCCOc1cccc(C(=O)Nc2cc(F)c(F)cc2C(=O)O)c1 [BPH-1455]	0.279
NCCc1cc(Br)cc(C#Cc2ccc(C#Cc3cc(Br)cc(CCN)c3)cc2)c1 [BPH-1419]	0.57
CCCCCCCCOc1cccc(C(=O)Nc2ccccc2P(=O)(O)O)c1 [BPH-1440]	0.76

What follows are molecules tested against T1, Decaprenyl diphosphate synthase (assay: DPPS Inhibition (trans FPP based) Assay). Details: pH 7.5.
Source text: We screened an in-house library of 53 compounds using trans-FPP as substrate.

SMILES	IC50 [µM]
O=P(O)(O)C(O)(Cc1cccc(-c2cc(F)cc(F)c2)c1)P(=O)(O)O [BPH-309]	1.7
O=P(O)(O)C(O)(Cc1cccc(-c2cccc(NS(=O)(=O)c3cccc(S(=O)(=O)Nc4cccc(-c5cccc(CC(O)(P(=O)(O)O)P(=O)(O)O)c5)c4)c3)c2)c1)P(=O)(O)O [BPH-789]	5.4
O=P(O)(O)C(O)(Cc1ccc(-c2cccc(NS(=O)(=O)c3ccc(-c4ccccc4)cc3)c2)cc1)P(=O)(O)O [BPH-781]	66
O=P(O)(O)C(O)(Cc1ccc(-c2cccc(-c3ccccc3)c2)cc1)P(=O)(O)O [BPH-625]	291
O=P(O)(O)C(C[n+]1ccc(-c2cccc3c2oc2ccccc23)cc1)P(=O)(O)O [BPH-642]	114
O=P(O)(O)C(O)(Cc1ccc(-c2cccc(NS(=O)(=O)c3ccc4ccccc4c3)c2)cc1)P(=O)(O)O [BPH-780]	3.8
O=P(O)(O)C(O)(Cc1cccc(-c2ccccc2)c1)P(=O)(O)O [BPH-294]	7.5
O=P(O)(O)C(C[n+]1ccc(-c2ccc(-c3ccccc3)cc2)cc1)P(=O)(O)O [BPH-632]	498
O=P(O)(O)C(O)(CCc1cccc(-c2cccc3c2oc2ccccc23)c1)P(=O)(O)O [BPH-646]	363
O=P(O)(O)C(O)(CCc1cccc(-c2cccc(-c3ccccc3)c2)c1)P(=O)(O)O [BPH-622]	55
O=C(c1ccccc1)c1ccc(OCCCCCC[n+]2ccccc2)cc1 [BPH-921]	880
O=P(O)(O)C(Nc1cccc(-c2ccccc2)c1)P(=O)(O)O [[(Biphenyl-3-ylamino)-phosphono-methyl]-phosphonic acid]	6.3
O=P(O)(O)C(O)(Cc1cccc(-c2cccc(NS(=O)(=O)c3ccc(-c4ccccc4)cc3)c2)c1)P(=O)(O)O [BPH-782]	23
C=CC/C=C\C/C=C\CCCCCCCc1cccc(O)c1C(=O)O [6-[8(Z),11(Z),14-pentadecatrienyl]salicylic acid]	280
O=P(O)(O)C(O)(Cc1cccc(-c2cccc(-c3ccccc3)c2)c1)P(=O)(O)O [{1-hydroxy-2-[3-(3-phenylphenyl)phenyl]-1-phosphonoethyl}phosphonic acid]	18
C=CCN(C)CCCCCCCCCCCCCCCC(=O)OC [BPH-922]	620
O=P(O)([CH2][Na])C(O)(Cc1ccc(-c2ccccc2)cc1)P(=O)(O)[CH2][Na] (stereo not given) [BPH-310]	8.8
O=P(O)(O)C(CCCc1ccc(-c2ccccc2)cc1)P(=O)(O)O [(4-Biphenyl-4-yl-1-phosphono-butyl)-phosphonic acid]	1.6

SMILES	IC50 [µM]
O=P(O)(O)C(O)(Cc1ccc(-c2ccc(-c3ccccc3)cc2)cc1)P(=O)(O)O [BPH-626]	51
O=P(O)(O)C(O)(CCc1ccc(-c2ccccc2)cc1)P(=O)(O)O [BPH-665]	13
O=P(O)(O)C(O)(Cc1cccc(-c2ccc(F)cc2F)c1)P(=O)(O)O [[2-(2',4'-Difluoro-biphenyl-3-yl)-1-hydroxy-1-phosphono-ethyl]-phosphonic acid]	4.3
CCCCCCCCCCCCOc1ccc[n+](CC(P(=O)(O)O)P(=O)(O)O)c1 [BPH-716]	77
O=P(O)(O)[C@@H](CCCc1cccc(Oc2ccccc2)c1)S(=O)(=O)O [BPH-652]	113
CCCCCCCCc1cc[n+](CC(P(=O)(O)O)P(=O)(O)O)cc1 [BPH-717]	113
O=P(O)(O)C(O)(CCc1cccc(-c2ccccc2-c2ccccc2)c1)P(=O)(O)O [BPH-621]	30
O=P(O)(O)C(O)(Cc1cccc(-c2ccc(-c3ccccc3)cc2)c1)P(=O)(O)O [{1-hydroxy-2-[3-(4-phenylphenyl)phenyl]-1-phosphonoethyl}phosphonic acid]	31
O=P(O)(O)C(O)(Cc1ccc(-c2ccc(Cl)cc2)cc1)P(=O)(O)O [[2-(4'-Chloro-biphenyl-4-yl)-1-hydroxy-1-phosphono-ethyl]-phosphonic acid]	1.5
O=P(O)(O)C(O)(Cc1cccc(-c2cccc(NS(=O)(=O)c3ccc4ccccc4c3)c2)c1)P(=O)(O)O [(1-hydroxy-2-{3-[3-(naphthalene-2-sulfonamido)phenyl]phenyl}-1-phosphonoethyl)phosphonic acid]	8.2
CCCCCCCCCCCCSc1ccccc1C(=O)O [BPH-940]	127
O=P(O)(O)C(CNc1cccc(-c2ccccc2)c1)P(=O)(O)O [2-(biphenyl-3-ylamino)ethane-1,1-diyldiphosphonic acid]	17
O=P(O)(O)C(O)(Cc1ccc(-c2ccccc2-c2ccccc2)cc1)P(=O)(O)O [BPH-624]	5.4
O=P(O)(O)C(O)(c1ccc(-c2ccccc2)cc1)P(=O)(O)O [(Biphenyl-4-yl-hydroxy-phosphono-methyl)-phosphonic acid]	17
O=P(O)(O)C(Nc1ccc(-c2ccccc2)cc1)P(=O)(O)O [(biphenyl-4-ylamino)methylenediphosphonic acid]	4.6
O=P(O)(O)C(O)(c1cccc(-c2ccccc2)c1)P(=O)(O)O [(biphenyl-3-yl-hydroxy-phosphono-methyl)-phosphonic acid]	40
CCCCCCCCCCCCNCC(P(=O)(O)O)P(=O)(O)O [1-[(n-Dodec-1-ylamino)ethyl]1,1-bisphosphonic acid]	370

Reference: BindingDB's records for doi:10.1111/cbdd.12463 (University of California San Diego, 2015)
